Measured values from patent publication US11667961B2, “Intercalating fluorescent dyes for labelling nucleic acids and preparation method thereof” (Bioacts Corporation, priority 2020, dated 2023).
Entries after “also recorded” stand apart in the source; their conditions may differ.

Experiments:
[1] = system: double-stranded DNA (cDNA extracted from HeLa cells, b-actin primer); assay: Compound analysis through real-time PCR by intercalating method (double-stranded DNA binding dyes); format: biochemical; conditions: for fluorescence signal / fluorescence intensity during DNA synthesis (FIG. 1): 1 uL of 200 uM dye in 20 uL reaction, fluorescence wavelength of 497 nm detected; for Cq value (FIG. 3): 45 cycles, HeLa cDNA template
Procedure: Compounds 8, 9, 10, 15, 16, and 17 were dissolved in dimethyl sulfoxide to prepare 5 mM of a stock solution. The prepared stock solution was diluted in a Tris-EDTA buffer (pH 7.5) and prepared at a concentration of 200 uM.
For Reference material 1, 10,000× of the stock solution was diluted to a concentration of 20× through a Tris-EDTA buffer (pH 7.5). For Reference material 2, 20,000× of the stock solution was diluted to a concentration of 20× through a Tris-EDTA buffer (pH 7.5).
Reference materials 1 (Evagreen) and 2 (Invitrogen Sybr Green) and Compounds 8, 9, 10, 15, 16, and 17 were compared and verified by an intercalating method using a double-stranded DNA binding dyes through real-time PCR. cDNA extracted from HeLa cells was used, and b-actin (Forward 5′-CATCGAGCACGGCATCGTCA-3′, Reverse 5′-TAGCACAGCCTGGATAGCAAC-3′) was used as a primer. Real-time PCR reaction was performed using a CFX96 touch real-time PCR detection system (BIO-RAD). The PCR mixture consisted of a total 20 uL of reaction solution containing 1 uL of a forward primer, 1 uL of a reverse primer, 10 uL of a PCR master mix (TAKARA), 1 uL of a reference material and each compound (Compounds 8, 9, 10, 15, 16, 17), and 1 uL of template cDNA. PCR conditions were as follows: (a) In a pre-denaturing step, 1 minute at 95° C. (b) 45 cycles are configured as a cycle consisting of at 95° C. for 15 seconds, 58° C. for 30 seconds and 72° C. for 30 seconds, and a fluorescence wavelength of 497 nm was detected in a cycle of 30 seconds at 72° C.

[2] = Stability analysis: storage in incubator at 60° C. for 3 days, then real-time PCR fluorescence; format: physicochemical; conditions: for change in fluorescence intensity after reaction at 60° C. for 3 days (FIGS. 11-14): stored in incubator at 60° C. for 3 days, real-time PCR for each template concentration
Procedure: Stability analysis was performed by storing Reference materials 1 (Evagreen) and 2 (Invitrogen Sybr Green) and Compound 16 in an incubator at 60° C. The three materials were stored in an incubator at 60° C. for 3 days, and the fluorescence signals for each template concentration were analyzed by real-time PCR analysis as in (1) above, and the PCR product was electrophoresed to analyze whether normal DNA synthesis was achieved. After real-time-PCR, synthetic DNA and a 6× Loading dye (BioActs) were mixed, and then electrophoresis was performed for 35 minutes on a 2% agarose gel (Simga-aldrich).

Structure (SMILES) | fluorescence signal / fluorescence intensity during DNA synthesis (FIG. 1) [1] | Cq value (FIG. 3) [1] | change in fluorescence intensity after reaction at 60° C. for 3 days (FIGS. 11-14) [2] | Cq value relative to Reference material 1 (FIG. 6) ([1]; compared with Evagreen) | fluorescence intensity relative to Reference materials 1 and 2 (FIG. 4) ([1]; compared with Evagreen and Sybr Green at 20×) | stability compared with Reference material 2 ([2]; 60° C. for 3 days)
CCCCCCCCNC(=O)CCCN(C)C1=C/C(=C\c2oc3ccccc3[n+]2C)c2ccccc2N1c1ccccc1 [Compound 10] | not strongly observed | not much confirmed | – | – | – | –
CCCN(CCCN(C)C)c1cc(/C=C2/Sc3ccccc3N2C)c2ccccc2[n+]1-c1ccccc1 [Reference material 2, reference compound] | – | – | decreased by about half | – | – | –
CCCCCCCCNC(=O)CCCN(C)C1=C/C(=C\c2oc3ccccc3[n+]2C)c2ccccc2N1c1ccccc1 [Compound 17] | emit visible fluorescence; also recorded: not much strong | hardly confirmed | – | – | – | –
C=CS(=O)(=O)CCNC(=O)CCCN(C)C1=C/C(=C\c2sc3ccccc3[n+]2C)c2ccccc2N1c1ccccc1 [Compound 15] | emit visible fluorescence; also recorded: not much strong | – | – | – | – | –
CN(C)CCCNC(=O)CCCN(C)C1=C/C(=C\c2oc3ccccc3[n+]2C)c2ccccc2N1c1ccccc1 [Compound 9] | not strongly observed | not much confirmed | – | – | – | –
C=CS(=O)(=O)CCNC(=O)CCCN(C)C1=C/C(=C\c2oc3ccccc3[n+]2C)c2ccccc2N1c1ccccc1 [Compound 8] | not strongly observed | not much confirmed | – | – | – | –
CN(C)CCCNC(=O)CCCN(C)C1=C/C(=C\c2sc3ccccc3[n+]2C)c2ccccc2N1c1ccccc1 [Compound 16] | emit visible fluorescence; also recorded: very strong | fastest | no significant change | faster than that of Reference material 1 | two times higher | more stable material than Reference material 2
